{"source": "patent US9237747B2", "about": "“Herbicidal compositions comprising 4-amino-3-chloro-5-fluoro-6-(4-chloro-2-fluoro-3-methoxyphenyl) pyridine-2-carboxylic acid or a derivative thereof and insecticides” (priority 2013, dated 2016)", "system": "ECHCG", "experiment": "In-water applied weed control, transplanted paddy rice (greenhouse)", "type": "in vivo, Echinochloa crus-galli", "conditions": "8 g ae/ha alone", "method": "Weed seeds or nutlets of the desired test plant species were planted in puddled soil (mud) prepared by mixing a shredded, non-sterilized mineral soil (50.5 percent silt, 25.5 percent clay, and 24 percent sand, with a pH of about 7.6 and an organic matter content of about 2.9 percent) and water at a 1:1 volumetric ratio. The prepared mud was dispensed in 365 mL aliquots into 16-ounce (oz.) non-perforated plastic pots with a surface area of 86.59 square centimeters (cm^2) leaving a headspace of 3 centimeters (cm) in each pot. Rice seeds were planted in Sun Gro MetroMix® 306 planting mixture, which typically has a pH of 6.0 to 6.8 and an organic matter content of about 30 percent, in plastic plug trays. Seedlings at the second or third leaf stage of growth were transplanted into 860 mL of mud contained in 32-oz. non-perforated plastic pots with a surface area of 86.59 cm^2 4 days prior to herbicide application. The paddy was created by filling the headspace of the pots with 2.5 to 3 cm of water. When required to ensure good germination and healthy plants, a fungicide treatment and/or other chemical or physical treatment was applied. The plants were grown for 4-22 days in a greenhouse with an approximate 14 h photoperiod which was maintained at about 29° C. during the day and about 26° C. during the night. Nutrients were added as Osmocote® (17:6:10, N:P:K+minor nutrients) at 2 grams (g) per 16-oz. pot and 4 g per 32-oz. pot. Water was added on a regular basis to maintain the paddy flood, and supplemental lighting was provided with overhead metal halide 1000-Watt lamps as necessary. The plants were employed for testing when they reached the first through fourth true leaf stage. […]\nTreatment requirements for each compound or herbicidal component were calculated based upon the rates being tested, the concentration of active ingredient or acid equivalent in the formulation, an application volume of 2 mL per component per pot, and an application area of 86.59 cm^2 per pot.\nFor formulated compounds, a measured amount was placed in an individual 100 or 200 mL glass vial and was dissolved in a volume of 1.25% (v/v) AgriDex® crop oil concentrate to obtain application solutions. […]\nThe treated plants and control plants were placed in a greenhouse as described above and water was added as needed to maintain a paddy flood. After approximately 3 weeks the condition of the test plants as compared with that of the untreated plants was determined visually and scored on a scale of 0 to 100 percent where 0 corresponds to no injury or growth inhibition and 100 corresponds to complete kill. […]", "data": [{"smiles": "COc1c(Cl)ccc(-c2nc(C(=O)OCc3ccccc3)c(Cl)c(N)c2F)c1F", "note": "[Compound A Benzyl Ester]", "values": [{"measurement": "Visual Weed Control (%) - 21 DAA ECHCG Obs", "result": 40, "unit": "%"}]}]}
